Assay results published in ChEMBL document CHEMBL1136408, “Structure-activity and crystallographic analysis of benzophenone derivatives-the potential anticancer agents” (Bioorg Med Chem Lett, 2003).

Columns and labels:
[1] = test system: KB 3-1; experiment: Compound was tested for cell arrest at Go/G1 phase at 50 nM concentration in KB human cancer cells; assay type: functional; conditions: read-out: Inhibition
[2] = test system: KB; experiment: Inhibitory concentration against VP16 resistant cell line (KB-7D) using tetrazolium dye reduction assay (MTT); assay type: functional, cell-based; conditions: Homo sapiens
[3] = test system: KB 3-1; experiment: Compound was tested for cell arrest at S phase at 50 nM concentration in KB human cancer cells; assay type: functional; conditions: read-out: Inhibition
[4] = test system: KB 3-1; experiment: Compound was tested for cell arrest at G2/M phase at 25 nM concentration in KB human cancer cells; assay type: functional; conditions: read-out: Inhibition
[5] = test system: KB 3-1; experiment: Compound was tested for cell arrest at sub-G1 phase at 100 nM concentration in KB human cancer cells; assay type: functional; conditions: read-out: Inhibition
[6] = test system: KB 3-1; experiment: Compound was tested for cell arrest at S phase at 25 nM concentration in KB human cancer cells; assay type: functional; conditions: read-out: Inhibition
[7] = test system: KB; experiment: Inhibitory concentration against camptothecin (CPT) resistant cell line (KB-100) using tetrazolium dye reduction assay (MTT); assay type: functional, cell-based; conditions: Homo sapiens
[8] = test system: KB 3-1; experiment: Compound was tested for cell arrest at Go/G1 phase at 100 nM concentration in KB human cancer cells; assay type: functional; conditions: read-out: Inhibition
[9] = test system: KB; experiment: Inhibitory concentration against human oral cancer cell line (KB) using tetrazolium dye reduction assay (MTT); assay type: functional, cell-based
[10] = test system: KB; experiment: Inhibitory concentration against vincristine-resistant cell line (KB-Vin 10) using tetrazolium dye reduction assay (MTT); assay type: functional, cell-based; conditions: Homo sapiens
[11] = test system: KB 3-1; experiment: Compound was tested for cell arrest at S phase at 100 nM concentration in KB human cancer cells; assay type: functional; conditions: read-out: Inhibition
[12] = test system: KB 3-1; experiment: Compound was tested for cell arrest at G2/M phase at 50 nM concentration in KB human cancer cells; assay type: functional; conditions: read-out: Inhibition
[13] = test system: HONE1 cell line; experiment: Inhibitory concentration against human NPC cancer cell line using tetrazolium dye reduction assay (MTT); assay type: functional, cell-based
[14] = test system: CPT30 cell line; experiment: Inhibitory concentration against camptothecin (CPT) resistant cell line using tetrazolium dye reduction assay (MTT); assay type: functional, cell-based; conditions: Homo sapiens
[15] = test system: KB 3-1; experiment: Compound was tested for cell arrest at sub-G1 phase at 50 nM concentration in KB human cancer cells; assay type: functional; conditions: read-out: Inhibition
[16] = test system: KB 3-1; experiment: Compound was tested for cell arrest at Go/G1 phase at 25 nM concentration in KB human cancer cells; assay type: functional; conditions: read-out: Inhibition
[17] = test system: KB; experiment: Inhibitory concentration against taxol resistant cell line (KBs5) at a concentration of 50 nM using tetrazolium dye reduction assay (MTT); assay type: functional, cell-based; conditions: Homo sapiens
[18] = test system: KB 3-1; experiment: Compound was tested for cell arrest at sub-G1 phase at 25 nM concentration in KB human cancer cells; assay type: functional; conditions: for Percent of cells arrested in sub-G1 phase at 0.025 µM: Homo sapiens, KB 3-1, read-out: Inhibition
[19] = test system: KB 3-1; experiment: Compound was tested for cell arrest at G2/M phase at 100 nM concentration in KB human cancer cells; assay type: functional; conditions: read-out: Inhibition

SMILES | % cells in G0/G1 phase at 0.05 µM [1] [%] | IC50 [2] [nM] | percent of cells arrested in S phase at 0.05 µM [3] [%] | percent of cells arrested in G2/M phase at 0.025 µM [4] [%] | Percent of cells in sub-G1 phase at 0.1 µM [5] [%] | Cells arrested in S phase (%) at 0.025 µM [6] [%] | IC50 [7] [nM] | percent cells arrested in G0/G1 phase at 0.1 µM [8] [%] | IC50 [9] [nM] | IC50 [10] [nM] | Cells arrested in S phase at 0.1 µM [11] [%] | Cells arrested in G2/M phase (%) at 0.05 µM [12] [%] | IC50 [13] [nM] | IC50 [14] [nM] | Cells in sub-G1 phase at 0.05 µM [15] [%] | percent of cells in G0/G1 phase at 0.025 µM [16] [%] | IC50 [17] [nM] | Percent of cells arrested in sub-G1 phase at 0.025 µM [18] [%] | percent of cells arrested in G2/M phase at 0.1 µM [19] [%] | Percent of cells arrested in sub-G1 phase [18] [%]
COc1cc(C(=O)c2cc(Cl)ccc2O)cc(OC)c1OC | 59.4 | 5450 | 15.9 | 18.3 | 26.5 | 14.6 | 4070 | 45.4 | 5460 | 8340 | 11.8 | 18.9 | 6110 | 5000 | 5.7 | 61.8 | 4550 | 5.3 | 16 | –
COc1cc(C(=O)c2cc(Cl)ccc2N)cc(OC)c1OC | 61.7 | 104 | 14.6 | 17.3 | 13.9 | 14.3 | 156 | 5.7 | 90.4 | 97.2 | 7.1 | 17.3 | 64.5 | 60.3 | 6.4 | 61.7 | 71 | – | 73.2 | 6.5
COc1ccc(/C=C\c2cc(OC)c(OC)c(OC)c2)cc1O [COMBRETASTATIN A4] | 9.3 | 7.9 | 10.6 | 61.6 | 11.6 | 11 | 7.3 | 5.2 | 6.2 | 9.5 | 10.6 | 63.2 | 6.5 | 6.9 | 16.8 | 8.9 | 7 | 18.3 | 72.3 | –
COc1ccc(N)c(C(=O)c2cc(OC)c(OC)c(OC)c2)c1 | – | 38.1 | – | – | – | – | 22.5 | – | 38.5 | 48.6 | – | – | 59.2 | 41 | – | – | 34.7 | – | – | –
COc1ccc(C(=O)c2cc(OC)c(OC)c(OC)c2)cc1O [PHENSTATIN] | 7.6 | 180 | 10.5 | 39.6 | 13 | 9.9 | 34.8 | 5.6 | 129 | 34.1 | 7.7 | 63.9 | 138 | 37.2 | 17.8 | 17.6 | 184 | 32.9 | 73.5 | –
CNc1ccc(Cl)cc1C(=O)c1cc(OC)c(OC)c(OC)c1 | – | 5410 | – | – | – | – | 7160 | – | 6080 | 5850 | – | – | 5140 | 5350 | – | – | 2290 | – | – | –
COc1ccc(C(=O)c2cc(OC)c(OC)c(OC)c2)c(N)c1 | – | 29.3 | – | – | – | – | 18.9 | – | 25.8 | 45.8 | – | – | 35.8 | 37.3 | – | – | 25.6 | – | – | –
